According to PMC3723878 (PLoS ONE, 2013):
Changes are numbered by the printed parent chain.

Legend:
Experiment in all cases: Saturation binding of ^125I-HEAT
[1] = molecular target: T1, human α1A-AR F281A variant (Homo sapiens, UniProt P35348, F281A)
T1 construct: expressed in transfected cells; host or cells: COS-7, transient (calcium phosphate)
T1 sequence (P35348 1-466 F281A): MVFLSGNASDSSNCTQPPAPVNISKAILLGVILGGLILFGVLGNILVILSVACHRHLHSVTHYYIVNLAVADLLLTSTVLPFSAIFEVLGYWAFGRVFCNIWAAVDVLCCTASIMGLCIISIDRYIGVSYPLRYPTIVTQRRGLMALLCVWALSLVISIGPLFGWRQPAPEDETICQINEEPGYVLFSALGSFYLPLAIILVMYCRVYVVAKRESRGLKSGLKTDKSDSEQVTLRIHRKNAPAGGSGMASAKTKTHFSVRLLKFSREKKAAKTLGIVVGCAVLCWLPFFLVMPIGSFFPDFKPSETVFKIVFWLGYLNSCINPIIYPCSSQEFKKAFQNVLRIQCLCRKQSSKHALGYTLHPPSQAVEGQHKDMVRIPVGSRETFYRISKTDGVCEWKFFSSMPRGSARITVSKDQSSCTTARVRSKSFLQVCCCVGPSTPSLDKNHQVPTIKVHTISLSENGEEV
Text: (§1) α1A-AR cDNA inserted in the prK5 vector was kindly provided by Michael Brownstein (Craig Venter Institute, Rockville, MD). Point mutations were introduced into the α1A-AR gene by sense and antisense primers (Sigma-Aldrich, St Quentin-Fallavier, France) containing the desired changes, using the QuikChange Site-Directed Mutagenesis kit. The incorporation of each mutation was verified by DNA sequencing.
(§2) CHO cells stably expressing α1-ARs were kindly provided by Dr. Hervé Paris (INSERM U858, Toulouse, France) and were grown in a 50∶50 Dulbecco's Modified Eagle's Medium (DMEM)/Ham's F12 medium supplemented with 10% (v/v) foetal bovine serum (FBS), glutamine (2 mM), penicillin (100 units/ml) and streptomycin (100 µg/ml) at 37°C with 5% CO2. COS-7 cells were grown at 37°C under 5% CO2 in Dulbecco's modified Eagle's medium containing 10% fetal calf serum, 1% penicillin and 1% glutamine (Sigma-Aldrich, St Quentin-Fallavier, France). At 80% confluence, the cells were transfected using a calcium phosphate precipitation method for transient expression of the genetic construct. After 48 h incubation at 37°C, cells were harvested and the membranes were prepared as follow. Cells were washed with ice-cold phosphate buffer and centrifuged at 1700 g for 10 min (4°C). The pellet was suspended in ice-cold buffer (1 mM EDTA, 25 mM sodium phosphate, and 5 mM MgCl2, pH 7.4) and homogenized using an Potter-Elvehjem homogenizer (Fisher Scientific Labosi, Elancourt, France). The homogenate was centrifuged at 1700 g for 15 min (4°C). The sediment was resuspended in buffer, homogenized, and centrifuged at 1700 g for 15 min (4°C). The combined supernatants were centrifuged at 35,000 g for 30 min (4°C), and the pellet was suspended in the same buffer (0.1 ml/dish). […] Cells were grown in a 50∶50 Dulbecco's Modified Eagle's Medium (DMEM)/Ham's F12 medium supplemented with 10% (v/v) foetal bovine serum (FBS), glutamine (2 mM), penicillin (100 units/ml) and streptomycin (100 µg/ml) at 37°C with 5% CO2. Media was changed every 2–3 days and cells were passaged when confluent with 0.05% trypsin and 0.02% EDTA.
(§3) Binding experiments were performed in a 100 µL reaction mix at room temperature in buffer composed of 50 mM Tris-HCl, pH 7.4, 10 mM MgCl2, 1 g/L BSA. Reactions were stopped by filtration through 96 GF/C filter plates pre-incubated with 0.5% polyethylenimine.
(§4) Binding data were analyzed by nonlinear regression using the KaleidaGraph 4.0 software (Synergy software, Reading, PA). pKD values and Bmax (number of binding sites) were determined by applying a nonlinear regression to data obtained with saturation binding assays. The nonlinear regression used was BS = (Bmax*A)/KD+A, where BS is the specific binding, Bmax the number of binding sites, A the concentration of radioligand, and KD the dissociation constant of the radioligand. Data resulting from competition binding assays were analyzed using the Hill equation for IC50 and curve slope estimations. […] The linear curves were analyzed with IC50 = Ki+(L/KD)*Ki. Dissociation kinetics were analyzed using a simple equation of exponential decay BS * exp (-Koff*t), where BS is the specific binding at time zero and Koff is the dissociation rate constant. Results are expressed as mean ± s.e. mean from n independent experiments. One-way Anova test was used to compare values. A p<0.05 was accepted for statistical significance.

[2] = molecular target: T2, human α1A-AR F312A variant (Homo sapiens, UniProt P35348, F312A)
T2 construct: expressed in transfected cells; host or cells: COS-7 (transient, calcium phosphate), membranes
T2 sequence (P35348 1-466 F312A): T1 sequence (P35348 1-466 F281A) with A281F, F312A
Text: as §1, §2, §3, §4

[3] = molecular target: T3, human α1A-AR M292A variant (Homo sapiens, UniProt P35348, M292A)
T3 construct: expressed in transfected cells; host or cells: COS-7 (transient, calcium phosphate), membranes
T3 sequence (P35348 1-466 M292A): T1 sequence (P35348 1-466 F281A) with A281F, M292A
Text: as §1, §2, §3, §4

Structure (SMILES): O=C1c2ccccc2CCC1CNCCc1ccc(O)c([125I])c1 (stereo not drawn) [125I-HEAT]
- ^125I-HEAT Ratio (loss of affinity relative to WT) ([1]; F281A): 3.9
- ^125I-HEAT pKd ([1]; F281A (6.44), saturation binding, n = 3–6): 9.46±0.09
- ^125I-HEAT Ratio (loss of affinity relative to WT) ([2]; F312A): 0.44
- ^125I-HEAT pKd ([2]; F312A (7.39), saturation binding, n = 3–6): 10.40±0.10
- ^125I-HEAT Ratio (loss of affinity relative to WT) ([3]; M292A): 2.2
- ^125I-HEAT pKd ([3]; M292A (6.55), saturation binding, n = 3–6): 9.69±0.09
